System: Escherichia coli gene product (lactate dehydrogenase)
Assay: Reaction of purified gene product with 19-substrate compound cocktail, changes detected by CE/MS
Type: biochemical
Conditions: 1 μg purified protein added to cocktail (100 μM each substrate, NADH 500 μM), 37° C., 30 min; control without gene product; FIG. 2
Protocol: As the compound cocktail, 100 μl of HEPES buffer (5 mM, pH7.5) comprising 19 different substrate compounds involved in the glycolytic system, TCA cycle, or pentose phosphate cycle (fructose-1,6-phosphate (F16P), 6-phosphogluconate (6PG), 2,3-phosphoglycerate (23DPG), glucose-1-phosphate (G1P), fructose-6-phosphate (F6P), glucose-6-phosphate (G6P), ribulose-5-phosphate (Ribulose5P), ribose-5-phosphate (Ribose5P), erythrose-4-phosphate (Erythrose4P), isocitric acid (iso-Citrate), citric acid (Citrate), 2-phosphoglycerate, 3-phosphoglycerate (2PG/3PG), cis-aconitic acid (cis-Aconitate), phosphoenolpyruvic acid (PEP), succinic acid (Succinate), fumaric acid (Fumarate), lactic acid (Lactate), and pyruvic acid (Pyruvate)) (100 μM each; the final concentration is shown in all parentheses hereafter), supplemented with NADH (500 μM), MgSO4 (10 mM), and KCl (10 mM) was used. […]
One μg of the purified protein was added to the above compound cocktail and incubated at 37° C. for 30 min. Immediately thereafter, the protein was removed by ultrafiltration and the reaction mixture was analyzed using a capillary electrophoresis-mass spectrometer (CE/MS). […]
CE/MS was used according to the instructions described in documents (Japanese Patent No. 3341765 and Soga T, et al., Anal. Chem., 74, 2233-2239 (2002)). […] Each compound can be detected as its own mass number (m/z).

SMILES | change in concentration of the compound in the cocktail compared with the control experiment
CC(O)C(=O)O (centres unmarked) [lactic acid] | increase
CC(=O)C(=O)O [pyruvic acid] | significant decrease
